According to ChEMBL document CHEMBL1155600, “Constituents of Boronia pinnata” (J Nat Prod, 2000):

How the values were obtained:
[1] = Cytotoxicity against human Raji cells assessed as cell viability at 16 nmol by trypan blue assay
[2] = Cytotoxicity against human Raji cells assessed as cell viability at 32 nmol by trypan blue assay
[3] = Cytotoxicity against human Raji cells assessed as cell viability at 3.2 nmol by trypan blue assay
[4] = Cytotoxicity against human Raji cells assessed as cell viability at 0.32 nmol by trypan blue assay

| Compound | viability at 16 nmol ([1]; Raji cells) [%] | viability at 32 nmol ([2]; Raji cells) [%] | viability at 3.2 nmol ([3]; Raji cells) [%] | viability at 0.32 nmol ([4]; Raji cells) [%] | viability at 16 nmol ([1]; raji) [%] | viability at 32 nmol ([2]; raji) [%] | viability at 3.2 nmol ([3]; raji) [%] | viability at 0.32 nmol ([4]; raji) [%] |
| --- | --- | --- | --- | --- | --- | --- | --- | --- |
| O=C(O)/C=C/c1ccc(O)cc1 [COUMARIC ACID] | > 80 | 60 | > 80 | > 80 |  |  |  |  |
| COc1ccc2c(OC)c(CC=C(C)C)c(=O)[nH]c2c1OC [PRESKIMMIANINE] | > 80 | 60 | > 80 | > 80 |  |  |  |  |
| CC(C)=CCc1cc(/C=C/C=O)ccc1O | > 80 | 60 | > 80 | > 80 |  |  |  |  |
| COc1c2ccccc2nc2occc12 [DICTAMNINE] |  |  |  |  | > 80 | 60 | > 80 | > 80 |
| OC/C=C/c1ccc2c(c1)OCO2 | > 80 | 70 | > 80 | > 80 |  |  |  |  |
| COc1cc(/C=C/C(=O)O)ccc1OCC=C(C)C [BOROPINIC ACID] | > 80 | 70 | > 80 | > 80 |  |  |  |  |
| COc1cc(C=O)cc(OC)c1O [SYRINGALDEHYDE] | > 80 | 60 | > 80 | > 80 |  |  |  |  |
| COc1cc(=O)n(C)c2c(OC)cccc12 | > 80 | 60 | > 80 | > 80 |  |  |  |  |
| COc1ccc2c(OC)c3ccoc3nc2c1 [EVOLITRINE] | > 80 | 60 | > 80 | > 80 |  |  |  |  |
| COc1cc2ccc(=O)oc2c2c1OC(C)(C)C=C2 | > 80 | 60 | > 80 | > 80 |  |  |  |  |
